Laboratory results as given in patent US5910509A, “Antimicrobial agent for agriculture” (priority 1996, dated 1999).
Like-named read-outs stand apart in the source and are kept apart here.

Columns and labels:
[1] = system: Candida Albicans strain B311A; assay: MIC assay (Example 1B); format: cell-based; settings: purification fractions, result in words
Protocol: The fractions from the purification were tested for antifungal activity against C. albicans (strain B311A available from Dr. Paul Actor, Temple University and strains ATCC Nos. 10231 and 10261) and C. tropicalis (strain 13803). Fungi were grown in 1× yeast nitrogen broth ("YNB") medium (BBL, Cockeysville, Md.) containing 15 μg/ml aspargine and 100 μg/ml kanamycin. Prior to the assay for antifungal activity, the fungus to be tested for susceptibility was grown overnight from a single colony in 5 ml of medium at 30° C. This overnight culture was diluted 1:10 with fresh medium and grown at 37° C. for 4 hours. A volume of 5 μl of extracts, dissolved in DMSO, was added to each separate well in a series of 96-well plates. 4,000 fungal cells were then added to each plate in 95 μl of medium. The optical densities of the wells were measured and the plates incubated at 37° C. The optical densities were again measured after 24 and 48 hours. Minimum inhibitory concentrations ("MICs") for the extracts were determined using this procedure wherein the extracts were serially diluted in medium prior to mixing with the 4,000 fungal cells.
Using the procedure described in the previous paragraph, it was determined that the MICs for compound A and compound B against Candida Albicans strain B311A grown in YNB medium were 25 μg/ml and 6.25 μg/ml, respectively. […]

FAS from S. cereviseae = target: T1, FAS from S. cereviseae (Saccharomyces cerevisiae, UniProt P07149+P19097); assay: FAS inhibition assay (Example 1C); format: biochemical, Saccharomyces cerviseae; settings: result in words
T1 construct: an FAS extract from Saccharomyces cerviseae was prepared; (the yeast cells); host or cells: Fleishmans' freeze dried yeast (Saccharomyces cerevisiae); lysate, 50% ammonium sulfate precipitate, dialyzed
Protocol: To test the compounds for FAS inhibitory activity, an FAS extract from Saccharomyces cerviseae was prepared. Freeze dried yeast (Fleishmans' freeze dried yeast, Specialty Brands, San Francisco, Calif.) 1 g, was hydrated in 5 mls deionized water for 15 minutes at 4° C. Subsequent extraction steps were conducted at a temperature between 4° C. and 10° C., except that in the cell lysis step the temperature may have briefly exceeded these boundaries. The cells were pelleted by centrifugation; the pelleted volume was measured; and the cells were resuspended in 5 vol. (5 mls per ml cell volume) extraction buffer [125 mM KH2PO4, pH 6.6, 1 mM EDTA, 1 mM DTT, 0.7 μg/ml pepstatin (Boehringer Mannheim, Indianapolis, Ind.), 0.2 μg/ml aprotinin (Boehringer Mannheim, Indianapolis, Ind.), 0.2 μg/ml leupeptin (Boehringer Mannheim, Indianapolis, Ind.)]. The cells were again pelleted and resuspended in 2 vol. extraction buffer. […]
105 μl of FAS extract was placed in each well of a polypropylene 96 well plate (Costar Corp. Cambridge, Mass.) and multiple 5 μl dilutions of compound A, compound B or negative control solution were introduced into each of the wells. […] The relative initial reaction rates in each well were measured by measuring the decrease in optical density at 340 nm using a UV Max microtiter plate reader (Molecular Devices, Sunnyvalle, Calif.).

Fungal cells = assay: Disk diffusion assay for antimicrobial activity; format: cell-based; settings: 37° C., 24 hours; for zone of inhibition at 100 µg/disc: 100 μg per 6 mm disk, Sabouraud Dextrose Agar, read-out: zone of growth inhibition diameter; for zone appearance (clear = fungicidal, hazy = fungistatic): disk diffusion; for zone of growth inhibition diameter: positive control disks 2.5 and 10 μg
Protocol: (§1) Fungal cells were grown overnight from a single colony in 2-5 ml Sabouraud Dextrose Broth at 37° C. 1-5×10^6 were spread onto Sabouraud Dextrose Agar plates (Difco, Detroit, Mich.). Sterile 6 mm filter disks were evenly spaced with at least about 22 mm separation on the plates. To each disk, 100 μg of a compound to be tested was applied in 5-10 μl DMSO. On each plate, two disks containing 2.5 and 10 μg, respectively, of Amphotericin B (Sigma) and two disks containing 2.5 and 10 μg, respectively, of cerulenin (Sigma) were used as positive controls. A disk containing only DMSO served as the negative control. The plates were incubated at 37° C. for 24 hours and the zone of growth inhibition about each disk was visually examined and measured. Compound A and compound B typically produced clear zones of 8-12 mm diameter. Amphotericin B typically produced a clear zone of 8-10 mm diameter. Cerulenin typically produced a hazy zone of 20-25 mm diameter. A clear zone is indicative of fungicidal activity, while a hazy zone is indicative of fungistatic activity.

[2] = system: Candida albicans (strains ATCC 10231 and ATCC 10261); assay: Disk diffusion assay, Candida albicans; format: cell-based
Protocol: as §1

[3] = system: Candida tropicalis (strain ATCC 13803); assay: Disk diffusion assay, Candida tropicalis; format: cell-based
Protocol: as §1

[4] = system: Fusarium acuminatum (strains ATCC 32965 and ATCC 32966); assay: Disk diffusion assay, Fusarium acuminatum; format: cell-based
Protocol: as §1

FAS = target: T2, FAS (Candida albicans, UniProt P43098); assay: FAS activity in extracts of treated C. albicans cultures (Example 10); format: cell-based
T2 construct: endogenous in cells; host or cells: Candida albicans strain 4918
Protocol: C. Albicans strain 4918 (available from Dr. Ronald Cihlar, Georgetown University Medical Center, Washington, D.C.) was grown in minimal medium (M63 media available from Difco, Detroit, Mich.) at 37° C. to mid-log phase. 10 μg/ml cerulenin and 25 μg/ml of compound B were added to separate cultures. At 15 minute intervals, 20 ml samples were removed and extracts prepared by mechanical extraction as in Example 1C, except that the ammonium sulfate precipitation step was not applied. The extract was diluted to 1 ml to form a solution containing 0.4M potassium phosphate, pH 7.3, 0.125 μM dithiothreitol, 50 μM acetyl-CoA, 100 μM NADPH. After incubation at 37° C. for 5 minutes, 100 μM malonyl-CoA containing 0.5 μCi [2-^14 C]-malonyl-CoA (Amersham, Arlington Heights, Ill.). After 10 minutes at 37° C., the fatty acid synthesis reaction was terminated by adding 30 μl of 60% perchloric acid (v/v) and 1 ml ethanol. Four volumes of pet. ether were added to each reaction incubation to extract the fatty acids. The relative incorporation of malonyl-CoA into fatty acids was determined by liquid scintillation counting.

[5] = system: C. albicans strain ATCC 10231; assay: Murine systemic model of candidiasis; format: in vivo, mice; settings: for Deaths Each Day Post Inoculation: 10 mg/kg IP
Protocol: In vivo activity was determined using a murine systemic model of candidiasis. Groups of 5 to 10 mice were inoculated IV with 1-2×10^7 cells of C. albicans strain ATCC 10231 (10 times the lethal dose). One hour after inoculation, the candidate antifungal compounds were delivered IP. 10 mg/kg of compound A was injected into each mouse of the compound A treatment group. Two separate treatment groups received 30 and 100 mg/kg, respectively, of compound B. Amphotericin B was injected into a positive control treatment group at 10 mg/kg. All compounds were delivered in phosphate-buffered saline (PBS) and one treatment group received PBS. Twice daily thereafter the mice were observed, the number of dead mice recorded, and the dead mice removed. After nine days, the total mortality over the period was determined.
Using the same methodology, it was determined that the maximal tolerated dose in these mice (i.e., the maximum dose that caused no deaths within 72 hours following IP administration) of compound B was in excess of 200 mg/kg. The mice treated with 2108B or Amphotericin B injected IP in […] of phosphate buffered saline, pH 7.4 had the following treatment profiles: […]

[6] = 0.5 h, read-out: Percent Remaining FAS Activity

T2 sequence (P43098 whole entry): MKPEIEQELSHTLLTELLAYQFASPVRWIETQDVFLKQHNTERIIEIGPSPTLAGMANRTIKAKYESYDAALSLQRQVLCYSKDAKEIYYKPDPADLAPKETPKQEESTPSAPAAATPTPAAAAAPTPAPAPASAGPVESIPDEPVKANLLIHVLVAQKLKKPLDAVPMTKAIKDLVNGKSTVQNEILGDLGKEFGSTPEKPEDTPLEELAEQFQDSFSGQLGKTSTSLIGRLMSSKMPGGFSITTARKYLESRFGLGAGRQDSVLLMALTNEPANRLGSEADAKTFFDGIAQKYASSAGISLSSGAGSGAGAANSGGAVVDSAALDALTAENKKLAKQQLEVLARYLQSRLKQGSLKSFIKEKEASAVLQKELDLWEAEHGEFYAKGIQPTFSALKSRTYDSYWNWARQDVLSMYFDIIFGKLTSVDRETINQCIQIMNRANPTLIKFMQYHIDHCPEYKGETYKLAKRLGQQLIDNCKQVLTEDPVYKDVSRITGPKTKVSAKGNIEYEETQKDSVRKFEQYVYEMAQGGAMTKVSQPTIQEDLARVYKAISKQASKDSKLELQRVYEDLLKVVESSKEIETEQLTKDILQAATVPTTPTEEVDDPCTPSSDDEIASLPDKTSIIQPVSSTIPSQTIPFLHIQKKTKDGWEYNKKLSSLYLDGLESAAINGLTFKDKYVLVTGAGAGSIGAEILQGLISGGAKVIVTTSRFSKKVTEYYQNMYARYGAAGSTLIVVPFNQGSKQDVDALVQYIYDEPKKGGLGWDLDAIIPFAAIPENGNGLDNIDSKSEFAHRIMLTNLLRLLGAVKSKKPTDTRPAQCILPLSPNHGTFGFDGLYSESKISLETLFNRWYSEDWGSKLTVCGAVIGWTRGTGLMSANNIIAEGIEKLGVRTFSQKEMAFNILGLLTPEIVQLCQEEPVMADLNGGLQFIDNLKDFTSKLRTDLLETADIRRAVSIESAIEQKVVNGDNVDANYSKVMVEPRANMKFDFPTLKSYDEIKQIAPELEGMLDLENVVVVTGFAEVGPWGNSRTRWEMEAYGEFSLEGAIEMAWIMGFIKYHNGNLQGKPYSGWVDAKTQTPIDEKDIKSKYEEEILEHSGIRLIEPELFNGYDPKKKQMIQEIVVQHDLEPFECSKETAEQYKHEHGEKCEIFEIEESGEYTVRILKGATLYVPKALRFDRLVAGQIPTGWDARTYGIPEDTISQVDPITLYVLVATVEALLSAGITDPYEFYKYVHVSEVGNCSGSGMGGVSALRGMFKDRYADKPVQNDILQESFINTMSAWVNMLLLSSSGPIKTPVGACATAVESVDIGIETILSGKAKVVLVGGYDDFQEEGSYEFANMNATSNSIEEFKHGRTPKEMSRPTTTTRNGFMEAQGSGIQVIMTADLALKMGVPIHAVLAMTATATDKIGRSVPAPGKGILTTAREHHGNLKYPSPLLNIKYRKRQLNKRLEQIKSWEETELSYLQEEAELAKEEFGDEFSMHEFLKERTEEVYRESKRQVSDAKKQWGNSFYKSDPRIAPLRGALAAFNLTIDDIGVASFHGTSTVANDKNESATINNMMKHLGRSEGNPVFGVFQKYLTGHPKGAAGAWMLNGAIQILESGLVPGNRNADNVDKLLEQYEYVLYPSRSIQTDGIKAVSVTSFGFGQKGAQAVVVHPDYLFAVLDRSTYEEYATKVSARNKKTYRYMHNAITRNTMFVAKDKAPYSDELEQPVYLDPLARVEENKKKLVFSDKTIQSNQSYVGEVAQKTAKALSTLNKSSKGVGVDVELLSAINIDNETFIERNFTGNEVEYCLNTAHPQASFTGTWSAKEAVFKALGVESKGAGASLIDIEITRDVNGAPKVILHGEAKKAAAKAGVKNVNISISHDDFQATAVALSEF
T2 sequence (P34731 whole entry partner): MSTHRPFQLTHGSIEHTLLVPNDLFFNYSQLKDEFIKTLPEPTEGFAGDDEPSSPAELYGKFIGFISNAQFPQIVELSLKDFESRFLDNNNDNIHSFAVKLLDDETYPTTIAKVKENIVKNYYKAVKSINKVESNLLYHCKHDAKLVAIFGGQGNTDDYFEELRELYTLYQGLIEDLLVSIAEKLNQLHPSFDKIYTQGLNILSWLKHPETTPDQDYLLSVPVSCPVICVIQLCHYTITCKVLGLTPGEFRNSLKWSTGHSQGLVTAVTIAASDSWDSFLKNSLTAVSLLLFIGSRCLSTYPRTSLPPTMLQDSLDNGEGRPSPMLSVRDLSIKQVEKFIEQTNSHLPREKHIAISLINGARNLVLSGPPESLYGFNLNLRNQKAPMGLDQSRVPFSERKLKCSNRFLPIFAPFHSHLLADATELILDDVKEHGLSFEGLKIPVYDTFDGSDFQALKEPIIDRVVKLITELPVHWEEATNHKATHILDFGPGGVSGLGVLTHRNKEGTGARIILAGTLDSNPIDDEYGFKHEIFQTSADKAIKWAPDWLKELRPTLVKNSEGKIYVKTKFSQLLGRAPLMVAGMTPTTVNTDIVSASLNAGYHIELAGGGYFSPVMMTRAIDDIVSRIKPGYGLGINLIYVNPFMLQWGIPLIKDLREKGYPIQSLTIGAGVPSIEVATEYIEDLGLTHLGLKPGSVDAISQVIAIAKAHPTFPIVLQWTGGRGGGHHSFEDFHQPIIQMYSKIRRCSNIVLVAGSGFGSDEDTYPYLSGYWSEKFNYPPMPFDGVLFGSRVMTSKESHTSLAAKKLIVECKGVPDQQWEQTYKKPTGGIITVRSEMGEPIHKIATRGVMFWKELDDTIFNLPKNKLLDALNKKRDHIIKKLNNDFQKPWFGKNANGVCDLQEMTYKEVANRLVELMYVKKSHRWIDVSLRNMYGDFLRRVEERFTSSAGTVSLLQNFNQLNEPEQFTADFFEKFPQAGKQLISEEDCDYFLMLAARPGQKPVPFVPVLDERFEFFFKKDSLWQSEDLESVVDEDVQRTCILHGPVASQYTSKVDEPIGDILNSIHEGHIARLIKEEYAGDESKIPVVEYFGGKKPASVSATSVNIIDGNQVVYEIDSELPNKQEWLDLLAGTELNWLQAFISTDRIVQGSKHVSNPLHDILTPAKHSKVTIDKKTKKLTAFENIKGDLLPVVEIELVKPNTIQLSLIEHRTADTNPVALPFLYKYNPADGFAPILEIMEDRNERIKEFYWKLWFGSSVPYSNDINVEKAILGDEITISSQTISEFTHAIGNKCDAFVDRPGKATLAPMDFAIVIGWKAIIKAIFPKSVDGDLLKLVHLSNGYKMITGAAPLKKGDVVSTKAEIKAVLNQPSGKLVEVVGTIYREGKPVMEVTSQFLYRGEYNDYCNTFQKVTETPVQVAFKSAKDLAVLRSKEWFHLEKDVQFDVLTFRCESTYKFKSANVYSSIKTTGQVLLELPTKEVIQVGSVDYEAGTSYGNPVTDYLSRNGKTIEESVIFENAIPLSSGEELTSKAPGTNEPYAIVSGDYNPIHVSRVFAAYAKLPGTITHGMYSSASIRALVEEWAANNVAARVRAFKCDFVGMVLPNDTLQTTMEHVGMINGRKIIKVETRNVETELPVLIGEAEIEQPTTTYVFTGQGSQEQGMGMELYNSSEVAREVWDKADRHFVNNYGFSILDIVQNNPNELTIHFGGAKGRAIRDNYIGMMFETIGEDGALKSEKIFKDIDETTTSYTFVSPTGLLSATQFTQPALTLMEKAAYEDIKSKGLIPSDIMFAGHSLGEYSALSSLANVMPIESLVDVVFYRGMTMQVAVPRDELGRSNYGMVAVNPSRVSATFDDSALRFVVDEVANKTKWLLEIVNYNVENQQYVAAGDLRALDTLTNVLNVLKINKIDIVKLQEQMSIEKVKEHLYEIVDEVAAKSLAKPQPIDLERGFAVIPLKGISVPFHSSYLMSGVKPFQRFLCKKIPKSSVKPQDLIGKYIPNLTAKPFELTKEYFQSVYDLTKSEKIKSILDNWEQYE

| SMILES | activity in the MIC assay of Example 1B [1] | activity in the enzyme inhibition assay of Example 1C (FAS from S. cereviseae) | zone of inhibition at 100 µg/disc (Fungal cells) [mm] | zone appearance (clear = fungicidal, hazy = fungistatic) (Fungal cells) | antimicrobial activity [2] | antimicrobial activity [3] | antimicrobial activity [4] | zone of growth inhibition diameter (Fungal cells) | other results |
| --- | --- | --- | --- | --- | --- | --- | --- | --- | --- |
| C/C=C/C=C/C=C/C1=CC2=CC(=O)C(C)(OC(=O)CC(C)O)C(=O)C2=CO1 (centres unmarked) [Compound B] | retained activity | not directly inhibitory of FAS | 8 to 12 | clear zones | had antimicrobial activity | had antimicrobial activity | had antimicrobial activity |  | FAS activity of cell extracts made after exposure (FAS): markedly reduced FAS activity; remaining activity at 25 µg/mL (FAS; [6]): 40% |
| C/C=C/C/C=C/CCC(=O)[C@H]1O[C@H]1C(N)=O [Cerulenin, cerulenin] |  |  |  | hazy zone |  |  |  | 20-25 mm | remaining activity at 10 µg/mL (FAS; 0.25 h, read-out: Percent Remaining FAS Activity): 20%; remaining activity at 10 µg/mL (FAS; [6]): 12% |
| C/C=C/C=C/C=C/C1=CC2=CC(=O)C(C)(OC(=O)CC(C)O)C(=O)C23OC3O1 (centres unmarked) [Compound A] | retained activity | retained activity | 8 to 12 | clear zones | had antimicrobial activity | had antimicrobial activity | had antimicrobial activity |  |  |
| C/C=C/C=C/C=C/C1=CC2=CC(=O)C(C)(OC(=O)CC(O)CC(C)O)C(=O)C23OC3O1 (centres unmarked) [patulodin] |  |  | 7 |  |  |  |  |  |  |
| C[C@@H]1[C@H](O)[C@@H](C)/C=C/C=C/C=C/C=C/C=C/C=C/C=C/[C@H](O[C@@H]2O[C@H](C)[C@@H](O)[C@H](N)[C@@H]2O)C[C@@H]2O[C@](O)(C[C@@H](O)C[C@@H](O)[C@H](O)CC[C@@H](O)C[C@@H](O)CC(=O)O[C@H]1C)C[C@H](O)[C@H]2C(=O)O [Amphotericin B] |  |  |  | clear zone |  |  |  | 8-10 mm | % Survival ([5]; 10 mg/kg IP one hour after inoculation, nine days): 80%; Deaths Each Day Post Inoculation ([5]; day 0): 0; Deaths Each Day Post Inoculation ([5]; day 1): 0; Deaths Each Day Post Inoculation ([5]; day 3): 0; Deaths Each Day Post Inoculation ([5]; day 5): 0; Deaths Each Day Post Inoculation ([5]; day 6): 0; Deaths Each Day Post Inoculation ([5]; day 7): 0; Deaths Each Day Post Inoculation ([5]; day 8): 0; Deaths Each Day Post Inoculation ([5]; day 9): 0 |
